From article PMC3707936 (Molecular cancer therapeutics, 2013)
Where two headings read alike, the source gives them in different places. *1 amine or outer side, *2 acyl side, *3 side chain or, on linkers, in order; H or OH if unused. Where a SMILES comes first, the peptide text is derived from it. Bridges are numbered along the chain shown (N, C = ends). Roman numbers before positions name the chains, in order. [ ]: non-standard residue; d: D form. Actinocin(9to1) = Cc1c2oc3c(C)ccc(C(=O)[*:1])c3nc-2c(C(=O)[*:2])c(N)c1=O; NMeV = CN[C@H](C(=O)O)C(C)C; Sar = CNCC(=O)O

Assays:
Assay type in all cases: cell-based
GIST T1-10R cells [1] = assay: Quantitative drug screen, CellTiter-Blue cell viability, GIST T1-10R; details: 72 h, read-out: IC50 GIST TI-10R
GIST 882 cells [2] = assay: Quantitative drug screen, CellTiter-Blue cell viability, GIST 882; details: Homo sapiens, GIST882, 72 h, read-out: IC50 GIST 882
ULTR cells = assay: Quantitative drug screen, CellTiter-Blue cell viability, ULTR; details: read-out: IC50 ULTR
GIST T1-10R cells [3] = assay: Hit validation cell proliferation, 12-point dose-response, GIST T1-10R; details: 72 h, read-out: IC50 GIST T1-10R
Hs 919.T. cells [4] = assay: Hit validation cell proliferation, 12-point dose-response, Hs 919.T.; details: read-out: IC50 Hs 919.T.
GIST 882 cells [5] = assay: Hit validation cell proliferation, 12-point dose-response, GIST 882; details: Homo sapiens, GIST882, 72 h, read-out: IC50 GIST 882
Hs 919.T. cells [6] = assay: Drug screen assay in Hs 919.T. cell line at 1 μM; details: 72 h; for inhibition at 1 µM: read-out: inhibition against Hs 919.T. cell proliferation
GIST-T1 cells = assay: Quantitative drug screen, CellTiter-Blue cell viability, GIST-T1; details: read-out: IC50 GIST-T1

## CCCSc1ccc2nc(NC(=O)OC)[nH]c2c1 [Albendazole]
GIST T1-10R cells [1]
  IC50: > 1000 nM
GIST 882 cells [2]
  IC50: > 1000 nM
ULTR cells; 72 h
  IC50: 320 nM

## COc1cc(NS(C)(=O)=O)ccc1Nc1c2ccccc2nc2ccccc12 [Amsacrine]
GIST T1-10R cells [1]
  IC50: > 1000 nM
GIST 882 cells [2]
  IC50: > 1000 nM
ULTR cells; 72 h
  IC50: > 1000 nM

## CC(C)C[C@H](NC(=O)[C@H](Cc1ccccc1)NC(=O)c1cnccn1)B(O)O [Bortezomib]
GIST T1-10R cells [1]
  IC50: 500 nM
GIST 882 cells [2]
  IC50: < 70 nM
ULTR cells; 72 h
  IC50: < 70 nM
GIST T1-10R cells [3]
  IC50: 1 ± 1 nM
Hs 919.T. cells [4]
  IC50: 150 ± 10 nM
GIST 882 cells [5]
  IC50: 2 ± 0.3 nM
Hs 919.T. cells [6]
  inhibition at 1 µM: > 50%

## CCOC(=O)n1ccn(C)c1=S [Carbimazole]
GIST T1-10R cells [1]
  IC50: 180 nM
GIST 882 cells [2]
  IC50: 50 nM
ULTR cells; 72 h
  IC50: < 70 nM

## CCN(CC)CCCC(C)Nc1ccnc2cc(Cl)ccc12 (centres unmarked) [Chloroquine]
GIST T1-10R cells [1]
  IC50: > 1000 nM
GIST 882 cells [2]
  IC50: 460 nM
ULTR cells; 72 h
  IC50: > 1000 nM

## Nc1nc(Cl)nc2c1ncn2[C@H]1C[C@H](O)[C@@H](CO)O1 [Cladribine]
GIST T1-10R cells [1]
  IC50: > 1000 nM
GIST 882 cells [2]
  IC50: 760 nM
ULTR cells; 72 h
  IC50: 540 nM

## Nc1nc(Cl)nc2c1ncn2[C@@H]1O[C@H](CO)[C@@H](O)[C@@H]1F [Clofarabine]
GIST T1-10R cells [1]
  IC50: > 1000 nM
GIST 882 cells [2]
  IC50: 990 nM
ULTR cells; 72 h
  IC50: 180 nM

## Cc1c2oc3c(C)ccc(C(=O)N[C@@H]4C(=O)N[C@H](C(C)C)C(=O)N5CCC[C@H]5C(=O)N(C)CC(=O)N(C)[C@@H](C(C)C)C(=O)O[C@@H]4C)c3nc-2c(C(=O)N[C@@H]2C(=O)N[C@H](C(C)C)C(=O)N3CCC[C@H]3C(=O)N(C)CC(=O)N(C)[C@@H](C(C)C)C(=O)O[C@@H]2C)c(N)c1=O [Dactinomycin] (I: T[dV]P[Sar][NMeV] / II: T[dV]P[Sar][NMeV]; ester I:1-I:C, II:1-II:C; linker I:N-II:N via Actinocin(9to1))
GIST T1-10R cells [1]
  IC50: > 1000 nM
GIST 882 cells [2]
  IC50: < 70 nM
ULTR cells; 72 h
  IC50: < 70 nM
Hs 919.T. cells [6]
  inhibition at 1 µM: > 50%

## C#C[C@]1(O)CC[C@H]2[C@@H]3CCC4=Cc5oncc5C[C@]4(C)[C@H]3CC[C@@]21C [Danazol]
GIST T1-10R cells [1]
  IC50: > 1000 nM
GIST 882 cells [2]
  IC50: 670 nM
ULTR cells; 72 h
  IC50: > 1000 nM

## COc1cccc2c1C(=O)c1c(O)c3c(c(O)c1C2=O)C[C@@](O)(C(C)=O)C[C@@H]3O[C@H]1C[C@H](N)[C@H](O)[C@H](C)O1 [Daunorubicin]
GIST T1-10R cells [1]
  IC50: > 1000 nM
GIST 882 cells [2]
  IC50: 170 nM
ULTR cells; 72 h
  IC50: < 70 nM
Hs 919.T. cells [6]
  inhibition at 1 µM: > 50%

## C[C@H]1O[C@@H](O[C@H]2[C@@H](O)C[C@H](O[C@H]3[C@@H](O)C[C@H](O[C@H]4CC[C@@]5(C)[C@H](CC[C@@H]6[C@@H]5CC[C@]5(C)[C@@H](C7=CC(=O)OC7)CC[C@]65O)C4)O[C@@H]3C)O[C@@H]2C)C[C@H](O)[C@@H]1O [Digitoxin]
GIST T1-10R cells [1]
  IC50: > 1000 nM
GIST 882 cells [2]
  IC50: 160 nM
ULTR cells; 72 h
  IC50: < 70 nM

## C[C@H]1O[C@@H](O[C@H]2[C@@H](O)C[C@H](O[C@H]3[C@@H](O)C[C@H](O[C@H]4CC[C@@]5(C)[C@H](CC[C@@H]6[C@@H]5C[C@@H](O)[C@]5(C)[C@@H](C7=CC(=O)OC7)CC[C@]65O)C4)O[C@@H]3C)O[C@@H]2C)C[C@H](O)[C@@H]1O [Digoxin]
GIST T1-10R cells [1]
  IC50: 930 nM
GIST 882 cells [2]
  IC50: 790 nM
ULTR cells; 72 h
  IC50: 160 nM
Hs 919.T. cells [6]
  inhibition at 1 µM: > 50%

## COc1cccc2c1C(=O)c1c(O)c3c(c(O)c1C2=O)C[C@@](O)(C(=O)CO)C[C@@H]3O[C@H]1C[C@H](N)[C@H](O)[C@H](C)O1 [Doxorubicin]
GIST T1-10R cells [1]
  IC50: > 1000 nM
GIST 882 cells [2]
  IC50: 80 nM
ULTR cells; 72 h
  IC50: 160 nM
Hs 919.T. cells [6]
  inhibition at 1 µM: > 50%

## COc1cc([C@@H]2c3cc4c(cc3[C@@H](O[C@@H]3O[C@@H]5CO[C@@H](C)O[C@H]5[C@H](O)[C@H]3O)[C@H]3COC(=O)[C@H]23)OCO4)cc(OC)c1O [Etoposide]
GIST T1-10R cells [1]
  IC50: > 1000 nM
GIST 882 cells [2]
  IC50: 30 nM
ULTR cells; 72 h
  IC50: > 1000 nM

## Nc1nc(F)nc2c1ncn2[C@@H]1O[C@H](COP(=O)(O)O)[C@@H](O)[C@@H]1O [Fludarabine Phosphate]
GIST T1-10R cells [1]
  IC50: 810 nM
GIST 882 cells [2]
  IC50: > 1000 nM
ULTR cells; 72 h
  IC50: > 1000 nM
GIST T1-10R cells [3]
  IC50: 840 ± 200 nM
GIST 882 cells [5]
  IC50: 540 ± 30 nM

## CN(C)c1ccc(C(=C2C=CC(=[N+](C)C)C=C2)c2ccc(N(C)C)cc2)cc1 [Gentian Violet]
GIST T1-10R cells [1]
  IC50: 960 nM
GIST 882 cells [2]
  IC50: 250 nM
ULTR cells; 72 h
  IC50: 160 nM

## CC(=O)[C@]1(O)Cc2c(O)c3c(c(O)c2[C@@H](O[C@H]2C[C@H](N)[C@H](O)[C@H](C)O2)C1)C(=O)c1ccccc1C3=O [Idarubicin]
GIST T1-10R cells [1]
  IC50: 690 nM
GIST 882 cells [2]
  IC50: 50 nM
ULTR cells; 72 h
  IC50: < 70 nM
GIST T1-10R cells [3]
  IC50: 50 ± 10 nM
Hs 919.T. cells [4]
  IC50: 70 ± 3 nM
GIST 882 cells [5]
  IC50: 130 ± 40 nM
Hs 919.T. cells [6]
  inhibition at 1 µM: > 50%

## COC(=O)Nc1nc2ccc(C(=O)c3ccccc3)cc2[nH]1 [Mebendazole]
GIST T1-10R cells [1]
  IC50: > 1000 nM
GIST 882 cells [2]
  IC50: > 1000 nM
ULTR cells; 72 h
  IC50: 730 nM

## O=C1c2c(O)ccc(O)c2C(=O)c2c(NCCNCCO)ccc(NCCNCCO)c21 [Mitoxantrone]
GIST T1-10R cells [1]
  IC50: > 1000 nM
GIST 882 cells [2]
  IC50: 80 nM
ULTR cells; 72 h
  IC50: < 70 nM
Hs 919.T. cells [6]
  inhibition at 1 µM: > 50%

## Cc1cn(-c2cc(NC(=O)c3ccc(C)c(Nc4nccc(-c5cccnc5)n4)c3)cc(C(F)(F)F)c2)cn1 [Nilotimb]
GIST-T1 cells; primary screen, 72 h, 10 μM to […] twofold dilutions, * = IC50 < 0.07 μM and drug showed no dose response
  IC50: 380 nM

## C[C@@H]1O[C@@H](O[C@H]2C[C@@H](O)[C@]3(CO)[C@H]4[C@H](O)C[C@]5(C)[C@@H](C6=CC(=O)OC6)CC[C@]5(O)[C@@H]4CC[C@]3(O)C2)[C@H](O)[C@H](O)[C@H]1O [Ouabain]
GIST T1-10R cells [1]
  IC50: 240 nM
GIST 882 cells [2]
  IC50: 30 nM
ULTR cells; 72 h
  IC50: < 70 nM

## CC(=O)O[C@H]1C(=O)[C@@]2(C)[C@H]([C@H](OC(=O)c3ccccc3)[C@]3(O)C[C@H](OC(=O)[C@H](O)[C@@H](NC(=O)c4ccccc4)c4ccccc4)C(C)=C1C3(C)C)[C@]1(OC(C)=O)CO[C@@H]1C[C@@H]2O [Paclitaxel]
GIST T1-10R cells [1]
  IC50: > 1000 nM
GIST 882 cells [2]
  IC50: > 1000 nM
ULTR cells; 72 h
  IC50: 200 nM

## COc1cc([C@@H]2c3cc4c(cc3[C@@H](O[C@@H]3O[C@@H]5CO[C@@H](c6cccs6)O[C@H]5[C@H](O)[C@H]3O)[C@H]3COC(=O)[C@H]23)OCO4)cc(OC)c1O [Teniposide]
GIST T1-10R cells [1]
  IC50: > 1000 nM
GIST 882 cells [2]
  IC50: 90 nM
ULTR cells; 72 h
  IC50: 190 nM

## CC[C@@]1(O)C(=O)OCc2c1cc1n(c2=O)Cc2cc3c(CN(C)C)c(O)ccc3nc2-1 [Topotecan]
GIST T1-10R cells [1]
  IC50: > 1000 nM
GIST 882 cells [2]
  IC50: 440 nM
ULTR cells; 72 h
  IC50: 90 nM

## CCC1=C[C@@H]2CN(C1)Cc1c([nH]c3ccccc13)[C@@](C(=O)OC)(c1cc3c(cc1OC)N(C)[C@H]1[C@@](O)(C(=O)OC)[C@H](OC(C)=O)[C@]4(CC)C=CCN5CC[C@]31[C@@H]54)C2 [Vinorelbine]
GIST T1-10R cells [1]
  IC50: > 1000 nM
GIST 882 cells [2]
  IC50: > 1000 nM
ULTR cells; 72 h
  IC50: 80 nM
Hs 919.T. cells [6]
  inhibition at 1 µM: > 50%

## Plicamycin
ULTR cells
  IC50: 150 nM
GIST-T1 cells
  IC50: 350 nM
Hs 919.T. cells [6]; 1 μM drug
  inhibition against Hs 919.T. cell proliferation: greater than 50%
